Patent publication US8969516B2, “Method of hydrolysis of peptide bond” (priority 2006, dated 2015)

Assay: MALDI-TOF screening of Ni^2+ dependent hydrolysis in a combinatorial peptide library
Format: physicochemical
Conditions: Ni^2+ 2 mM, pH 8.2, 10 mM Tris, score=24/tm
Summary of the method: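 Sublibraries of Ac-Gly-Ala-Ser/Thr-X-His-Z-Lys-Phe-Leu-NH2, randomized at Z and fixed at X, were hydrolyzed at 1 mM total peptide with 2 mM Ni2+ in 10 mM Tris, pH 8.2, at 37 °C or 45 °C. Cleavage was scored visually in MALDI-TOF spectra at 2, 4, 6 and 8 h.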

[1] = CH3CO-Gly-Ala-Thr-X-His-Z-Lys-Phe-Leu-NH2 library, 37° C.
[2] = CH3CO-Gly-Ala-Thr-X-His-Z-Lys-Phe-Leu-NH2 library, 45° C.
[3] = CH3CO-Gly-Ala-Ser-X-His-Z-Lys-Phe-Leu-NH2 library, 37° C.
[4] = CH3CO-Gly-Ala-Ser-X-His-Z-Lys-Phe-Leu-NH2 library, 45° C.

In the case of Ac-GATMHHKFL-NH2 [TMHH], the “hydrolysis score from MALDI-TOF screening” value (shortened to “hydrolysis score”) [1] was 0 (a score of 0 if no trace of the product of hydrolysis was seen after 8 hours of incubation) and the “hydrolysis score” value [2] was 0 (a score of 0 if no trace of the product of hydrolysis was seen after 8 hours of incubation).

For Ac-GATSHRKFL-NH2 [TSHR], the “hydrolysis score” value [1] was 0 (a score of 0 if no trace of the product of hydrolysis was seen after 8 hours of incubation) and the “hydrolysis score” value [2] was 0 (a score of 0 if no trace of the product of hydrolysis was seen after 8 hours of incubation).

With Ac-GATSHYKFL-NH2 [TSHY] the “hydrolysis score” value [1] was 0 (a score of 0 if no trace of the product of hydrolysis was seen after 8 hours of incubation) and the “hydrolysis score” value [2] was 0 (a score of 0 if no trace of the product of hydrolysis was seen after 8 hours of incubation).

With Ac-GASTHDKFL-NH2 [STHD] the “hydrolysis score” value [3] was 0 (a score of 0 if no trace of the product of hydrolysis was seen after 8 hours of incubation) and the “hydrolysis score” value [4] was 0 (a score of 0 if no trace of the product of hydrolysis was seen after 8 hours of incubation).

For Ac-GASAHIKFL-NH2 [SAHI], the “hydrolysis score” value [3] was 0 (a score of 0 if no trace of the product of hydrolysis was seen after 8 hours of incubation) and the “hydrolysis score” value [4] was 4 (a score of 4 for detection at 6 hours).

For Ac-GATTHAKFL-NH2 [TTHA], the “hydrolysis score” value [1] was 0 (a score of 0 if no trace of the product of hydrolysis was seen after 8 hours of incubation) and the “hydrolysis score” value [2] was 0 (a score of 0 if no trace of the product of hydrolysis was seen after 8 hours of incubation).

In the case of Ac-GASHHSKFL-NH2 [SHHS], the “hydrolysis score” value [3] was 0 (a score of 0 if no trace of the product of hydrolysis was seen after 8 hours of incubation) and the “hydrolysis score” value [4] was 0 (a score of 0 if no trace of the product of hydrolysis was seen after 8 hours of incubation).

In the case of Ac-GATKHYKFL-NH2 [TKHY], the “hydrolysis score” value [1] was 3 (a score of 3 for detection at 8 hours) and the “hydrolysis score” value [2] was 6 (a score of 6 for detection at 4 hours).

With Ac-GATNHTKFL-NH2 [TNHT] the “hydrolysis score” value [1] was 0 (a score of 0 if no trace of the product of hydrolysis was seen after 8 hours of incubation) and the “hydrolysis score” value [2] was 0 (a score of 0 if no trace of the product of hydrolysis was seen after 8 hours of incubation).

In the case of Ac-GASTHYKFL-NH2 [STHY], the “hydrolysis score” value [3] was 0 (a score of 0 if no trace of the product of hydrolysis was seen after 8 hours of incubation) and the “hydrolysis score” value [4] was 3 (a score of 3 for detection at 8 hours).

With Ac-GATLHEKFL-NH2 [TLHE] the “hydrolysis score” value [1] was 0 (a score of 0 if no trace of the product of hydrolysis was seen after 8 hours of incubation) and the “hydrolysis score” value [2] was 0 (a score of 0 if no trace of the product of hydrolysis was seen after 8 hours of incubation).

For Ac-GATPHYKFL-NH2 [TPHY], the “hydrolysis score” value [2] was 0 (a score of 0 if no trace of the product of hydrolysis was seen after 8 hours of incubation).

In the case of Ac-GATQHEKFL-NH2 [TQHE], the “hydrolysis score” value [1] was 0 (a score of 0 if no trace of the product of hydrolysis was seen after 8 hours of incubation) and the “hydrolysis score” value [2] was 0 (a score of 0 if no trace of the product of hydrolysis was seen after 8 hours of incubation).

In the case of Ac-GASRHNKFL-NH2 [SRHN], the “hydrolysis score” value [3] was 0 (a score of 0 if no trace of the product of hydrolysis was seen after 8 hours of incubation) and the “hydrolysis score” value [4] was 0 (a score of 0 if no trace of the product of hydrolysis was seen after 8 hours of incubation).

With Ac-GATKHHKFL-NH2 [TKHH] the “hydrolysis score” value [1] was 0 (a score of 0 if no trace of the product of hydrolysis was seen after 8 hours of incubation) and the “hydrolysis score” value [2] was 4 (a score of 4 for detection at 6 hours).

In the case of Ac-GASSHRKFL-NH2 [SSHR], the “hydrolysis score” value [3] was 6 (a score of 6 for detection at 4 hours) and the “hydrolysis score” value [4] was 6 (a score of 6 for detection at 4 hours).

With Ac-GATSHMKFL-NH2 [TSHM] the “hydrolysis score” value [1] was 0 (a score of 0 if no trace of the product of hydrolysis was seen after 8 hours of incubation) and the “hydrolysis score” value [2] was 0 (a score of 0 if no trace of the product of hydrolysis was seen after 8 hours of incubation).

In the case of Ac-GASMHGKFL-NH2 [SMHG], the “hydrolysis score” value [3] was 0 (a score of 0 if no trace of the product of hydrolysis was seen after 8 hours of incubation) and the “hydrolysis score” value [4] was 0 (a score of 0 if no trace of the product of hydrolysis was seen after 8 hours of incubation).

For Ac-GASRHTKFL-NH2 [SRHT], the “hydrolysis score” value [3] was 0 (a score of 0 if no trace of the product of hydrolysis was seen after 8 hours of incubation) and the “hydrolysis score” value [4] was 3 (a score of 3 for detection at 8 hours).

For Ac-GATRHSKFL-NH2 [TRHS], the “hydrolysis score” value [1] was 0 (a score of 0 if no trace of the product of hydrolysis was seen after 8 hours of incubation) and the “hydrolysis score” value [2] was 0 (a score of 0 if no trace of the product of hydrolysis was seen after 8 hours of incubation).

With Ac-GASWHMKFL-NH2 [SWHM] the “hydrolysis score” value [3] was 0 (a score of 0 if no trace of the product of hydrolysis was seen after 8 hours of incubation) and the “hydrolysis score” value [4] was 3 (a score of 3 for detection at 8 hours).

With Ac-GASRHLKFL-NH2 [SRHL] the “hydrolysis score” value [3] was 12 (a score of 12, if it was seen to be partially hydrolysed at 2 hours) and the “hydrolysis score” value [4] was 12 (a score of 12, if it was seen to be partially hydrolysed at 2 hours).

In the case of Ac-GATTHMKFL-NH2 [TTHM], the “hydrolysis score” value [1] was 0 (a score of 0 if no trace of the product of hydrolysis was seen after 8 hours of incubation) and the “hydrolysis score” value [2] was 0 (a score of 0 if no trace of the product of hydrolysis was seen after 8 hours of incubation).

In the case of Ac-GASPHMKFL-NH2 [SPHM], the “hydrolysis score” value [3] was 0 (a score of 0 if no trace of the product of hydrolysis was seen after 8 hours of incubation) and the “hydrolysis score” value [4] was 0 (a score of 0 if no trace of the product of hydrolysis was seen after 8 hours of incubation).

In the case of Ac-GATMHDKFL-NH2 [TMHD], the “hydrolysis score” value [1] was 0 (a score of 0 if no trace of the product of hydrolysis was seen after 8 hours of incubation) and the “hydrolysis score” value [2] was 0 (a score of 0 if no trace of the product of hydrolysis was seen after 8 hours of incubation).

In the case of Ac-GATQHHKFL-NH2 [TQHH], the “hydrolysis score” value [1] was 0 (a score of 0 if no trace of the product of hydrolysis was seen after 8 hours of incubation) and the “hydrolysis score” value [2] was 0 (a score of 0 if no trace of the product of hydrolysis was seen after 8 hours of incubation).

With Ac-GATFHSKFL-NH2 [TFHS] the “hydrolysis score” value [1] was 0 (a score of 0 if no trace of the product of hydrolysis was seen after 8 hours of incubation) and the “hydrolysis score” value [2] was 0 (a score of 0 if no trace of the product of hydrolysis was seen after 8 hours of incubation).

In the case of Ac-GATVHRKFL-NH2 [TVHR], the “hydrolysis score” value [1] was 0 (a score of 0 if no trace of the product of hydrolysis was seen after 8 hours of incubation) and the “hydrolysis score” value [2] was 3 (a score of 3 for detection at 8 hours).

With Ac-GASTHNKFL-NH2 [STHN] the “hydrolysis score” value [3] was 0 (a score of 0 if no trace of the product of hydrolysis was seen after 8 hours of incubation) and the “hydrolysis score” value [4] was 0 (a score of 0 if no trace of the product of hydrolysis was seen after 8 hours of incubation).

With Ac-GATNHHKFL-NH2 [TNHH] the “hydrolysis score” value [1] was 0 (a score of 0 if no trace of the product of hydrolysis was seen after 8 hours of incubation) and the “hydrolysis score” value [2] was 0 (a score of 0 if no trace of the product of hydrolysis was seen after 8 hours of incubation).

With Ac-GASVHIKFL-NH2 [SVHI] the “hydrolysis score” value [3] was 3 (a score of 3 for detection at 8 hours) and the “hydrolysis score” value [4] was 3 (a score of 3 for detection at 8 hours).

In the case of Ac-GATAHDKFL-NH2 [TAHD], the “hydrolysis score” value [1] was 0 (a score of 0 if no trace of the product of hydrolysis was seen after 8 hours of incubation) and the “hydrolysis score” value [2] was 0 (a score of 0 if no trace of the product of hydrolysis was seen after 8 hours of incubation).

With Ac-GATWHTKFL-NH2 [TWHT] the “hydrolysis score” value [1] was 0 (a score of 0 if no trace of the product of hydrolysis was seen after 8 hours of incubation) and the “hydrolysis score” value [2] was 0 (a score of 0 if no trace of the product of hydrolysis was seen after 8 hours of incubation).

With Ac-GATGHQKFL-NH2 [TGHQ] the “hydrolysis score” value [1] was 0 (a score of 0 if no trace of the product of hydrolysis was seen after 8 hours of incubation) and the “hydrolysis score” value [2] was 0 (a score of 0 if no trace of the product of hydrolysis was seen after 8 hours of incubation).

In the case of Ac-GASSHNKFL-NH2 [SSHN], the “hydrolysis score” value [3] was 0 (a score of 0 if no trace of the product of hydrolysis was seen after 8 hours of incubation) and the “hydrolysis score” value [4] was 0 (a score of 0 if no trace of the product of hydrolysis was seen after 8 hours of incubation).

For Ac-GASVHAKFL-NH2 [SVHA], the “hydrolysis score” value [3] was 0 (a score of 0 if no trace of the product of hydrolysis was seen after 8 hours of incubation) and the “hydrolysis score” value [4] was 0 (a score of 0 if no trace of the product of hydrolysis was seen after 8 hours of incubation).

In the case of Ac-GASTHMKFL-NH2 [STHM], the “hydrolysis score” value [3] was 0 (a score of 0 if no trace of the product of hydrolysis was seen after 8 hours of incubation) and the “hydrolysis score” value [4] was 0 (a score of 0 if no trace of the product of hydrolysis was seen after 8 hours of incubation).
